Assays:
Vero E6 cells = test: Cytotoxicity / cell growth observed in Vero E6 cells during the neutralization assay; details: for Cell growth: 1.25 mg/mL, also seen in corresponding DMSO controls (1.25%), attributed to DMSO
[1] = tested on: SARS-CoV-2 (USA-WA1/2020 strain); test: SARS-CoV-2 neutralization assay in Vero E6 cells, cytopathic effect (CPE) read-out; assay type: cell-based; details: for Inhibition of SARS-CoV-2 infection of Vero cells / Day 2 CPE / Day 4 CPE: 1.25 mg/mL; for Inhibition of SARS-CoV-2 infection of Vero cells: dosed simultaneously with viral addition to cells; for EC50 (inhibition of SARS-CoV-2 CPE): Vero E6 cells, calculated by the Quest Graph EC50 Calculator (AAT Bioquest); for Day 2 CPE / Day 4 CPE: five replicate wells; for Day 2 CPE: Day 2 post-infection; for Day 4 CPE: Day 4 post-infection
COVID-19 = test: Subject presenting with COVID-19 symptoms taking TUDCA capsules (Example 3); assay type: in vivo; details: 500 mg capsule, twice per day; after several days
Method: A subject presenting with COVID-19 symptoms was instructed to administer one gelatin capsule of TUDCA (500 mg, powder in capsule), twice per day.

SARS-CoV-2 / COVID-19 = assay type: in vivo; details: 500 mg capsule, twice per day
[2] = Solubility on dilution of DMSO stock in DMEM/F12; assay type: physicochemical
Method: The Vero E6 cells were plated on 96-well plates the day before the assay and were allowed to grow to ˜60% confluence. All three drugs were reconstituted with DMSO to a concentration of 100 mg/mL. That was further diluted in DMEM/F12 to 5 mg/mL. […] A 1:2 serial dilution series was performed to examine final concentrations of 1.25, 0.625, 0.31, 0.156, 0.078, 0.039, and 0.02 mg/mL. DMSO controls were used to account for DMSO concentrations at 1.25, 0.625, 0.31, 0.156, 0.078, 0.039, and 0.02%. Dilutions were pre-incubated with virus for 60 minutes prior to addition to cells. This was to allow drug to interact with virus prior to virus infection. Additionally, drug and virus were added to Vero cells simultaneously. 45 minutes after virus addition, DMEM/F12+FBS was added to feed the cells. The assay was executed in five replicates for each condition. Test wells received approximately 100 TCID50/well of SARS-CoV-2. Growth of the Vero E6 cells was observed and monitored for cytopathic effects (CPE) associated with successful virus replication. All wells were examined on Day 2 and Day 4 post-infection.

[3] = pre-incubation with virus for 60 minutes
[4] = simultaneous addition of drug and virus

Row | Compound | Cell growth (Vero E6 cells) | Inhibition of SARS-CoV-2 infection of Vero cells [1] | EC50 (inhibition of SARS-CoV-2 CPE) [1] [µg/mL] | Day 2 CPE [1, 3] | Day 2 CPE [1, 4] | Day 4 CPE [1, 4] | Health outcome of subject with COVID-19 symptoms (COVID-19) | Health outcome of member who tested positive for SARS-CoV-2 with COVID-19 symptoms (SARS-CoV-2 / COVID-19; oral, one member) | COVID-19 symptoms in exposed members (prophylaxis) (SARS-CoV-2 / COVID-19; twelve members, repeated exposure to COVID-19 patients over at least 3 months) | Cytotoxicity in wells (Vero E6 cells; 1.25 and 0.625 mg/mL final concentrations) | Solubility in DMEM/F12 ([2]; 100 mg/mL DMSO stock diluted in DMEM/F12 to 5 mg/mL) | Solubility in DMEM/F12 ([2]; next 1:2 dilution after 5 mg/mL)
1 | C[C@H](CCC(=O)NCCS(=O)(=O)[O-])[C@H]1CC[C@H]2[C@@H]3[C@@H](O)C[C@@H]4C[C@H](O)CC[C@]4(C)[C@H]3CC[C@]12C.[Na+] [Sodium TUDCA] | Slowed cell growth | inhibit SARS-CoV-2 infection of Vero cells | 980 | no CPE | no CPE | no CPE | – | – | – | – | – | –
2 | CC(CCC(=O)NCCS(=O)(=O)O)C1CCC2C3C(O)CC4CC(O)CCC4(C)C3CCC12C (stereo not drawn) [TUDCA acid, tauroursodeoxycholic acid] | Slowed cell growth | inhibit SARS-CoV-2 infection of Vero cells | 980 | no CPE | no CPE | no CPE | – | – | – | – | – | –
3 | CC(CCC(=O)NCCS(=O)(=O)O)C1CCC2C3C(O)CC4CC(O)CCC4(C)C3CCC12C (stereo not drawn) [TUDCA, tauroursodeoxycholic acid] | – | – | – | – | – | – | health returned to normal | health returned to normal | None of the other twelve members have presented with COVID-19 symptoms | Cytotoxicity was seen | came out of solution | soluble

Source: patent publication US20230172951A1, “METHODS OF USING BILE ACIDS TO TREAT VIRAL INFECTIONS” (HOFFMAN TECHNOLOGIES LLC, priority 2020, published 2023)
